Literature values, collected in patent publication US20250000096A1, “ANTIMICROBIAL COMPOSITION WITH A LOW ODOR” (EVONIK CORPORATION, priority 2021, published 2025).

Conditions: background statement

limit for olfactory detection: 0.15 ppm
Structure (SMILES): CC(=O)O [acetic acid]
